Test results reported in patent US10357464B2, “Methods for delivering volatile anesthetics for regional anesthesia and/or pain relief” (The Board of Regents of the University of Texas System, priority 2006, dated 2019).
Several values for one entry are separate records, joined by “and”; a condition that tells them apart may be missing. Equal values may be shown once.

Columns and labels:
[1] = test system: thermal C-fiber pain pathway; assay: Hotplate test after intrathecal injection of isoflurane dissolved in saline (Study C); type: in vivo, rat; settings: 5 microliter isoflurane dissolved in saline
Protocol: Isoflurane was dissolved into saline using the following method (also referred to as the “bubbling” method). Study C: A mock vaporizing device was created using a 500 ml modified Erlenmeyer flask (2 inlets and 1 catheter into the liquid phase). The flask was partially filled with 0.9% normal saline and a stoppered glass pipette was inserted into the bottom of the liquid phase for injection of isoflurane. A second egress pipette allowed egress of gas from the closed container. 2% isoflurane solution in oxygen at 2 L/min was injected through the pipette, saturating the 0.9% saline solution after approximately 10 minutes of injection. 5 mL was drawn from the saturated saline solution and administered to […] using the procedures outlined in Example I above. For study C, all animals were prepared as for experiments A and B. The inventors injected 4 animals with 5 microliter of dissolved isoflurane solution (as prepared in 0030) via intrathecal catheter. Note, control (baseline) latency to paw withdrawal is different in Study C due to a different intensity of heat lamp used. Each animal serves as its own control in study C. Study C Data is presented here: in seconds to paw withdrawal to heat source. Table and graphic format.

[2] = Observation of adverse effects and recovery after intrathecal injection; type: in vivo, rat; settings: intrathecal injection of 2 microliters, rats
Protocol: These rats were then allowed time to recover from their intrathecal injection. There were no apparent adverse effects such as respiratory depression, cardiac, or neurological compromise. At 30 minutes after the injection, the rats were tested again, according to grouping:
This study also shed some light into the safety of intrathecally delivering active agent gases.

[3] = test system: thermal C-fiber pain pathway; assay: Hotplate test after intrathecal isoflurane dissolved in artificial cerebrospinal fluid (ACSF); type: in vivo, rat
Protocol: Pain sensitivity was measured after intrathecal administration of isoflurane in artificial cerebrospinal fluid (ACSF). Further, as detailed below, the isoflurane was first dissolved in ACSF and then sonicated before administration. The dose response relationship was then evaluated by generating a stimulus-response (SR) graph in order to determine relevant concentrations of isoflurane that may be administered intrathecally to achieve analgesia or anesthesia. The characterization of the pharmacological profile of intrathecal administration of isoflurane in ACSF was performed in this example using rats; further, as would be appreciated by one of skill in the art, analogous approaches may be used to determine the precise pharmacological profile in humans. Isoflurane dissolved in ACSF was prepared by the following method. […] The dose response relationship was then evaluated by generating a stimulus-response (SR) graph in order to standardize responses across animals and determine relevant concentrations of isoflurane that may be administered intrathecally to achieve analgesia or anesthesia. […] MPE is calculated as ((drug response time—baseline response time)/(cutoff time−baseline response time))*100. […]

[4] = test system: thermal C-fiber pain pathway; assay: Hotplate test (thermal withdrawal latency) after direct intrathecal injection of volatile anesthetic; settings: smallest intrathecally delivered dose of 2 microliters

SMILES | seconds to paw withdrawal to heat source, 5 MIN, mean ([1]; 5 min, mean of all readings (control mean 3.875)) | seconds to paw withdrawal to heat source, 5 MIN ([1]; 5 min, single readings per rat) | seconds to paw withdrawal to heat source, 10 MIN, mean ([1]; 10 min, mean of all readings) | seconds to paw withdrawal to heat source, 10 MIN ([1]; 10 min, single readings per rat) | seconds to paw withdrawal to heat source, 15 MIN, mean ([1]; 15 min, mean of all readings) | seconds to paw withdrawal to heat source, 15 MIN ([1]; 15 min, single readings per rat) | seconds to paw withdrawal to heat source, 30 MIN, mean ([1]; 30 min, mean of all readings) | seconds to paw withdrawal to heat source, 30 MIN ([1]; 30 min, single readings per rat) | seconds to paw withdrawal to heat source, 60 MIN, mean ([1]; 60 min, mean of all readings) | seconds to paw withdrawal to heat source, 60 MIN ([1]; 60 min, single readings per rat) | adverse effects [2] | maximal possible effect (MPE) ([3]; 10% v/v isoflurane in ACSF, 10 μl intrathecal (1.46 mg), 10 minutes after injection, cutoff 20 seconds) | analgesia (hind paw withdrawal threshold to radiant heat) ([3]; isoflurane in ACSF 10% v/v, 10 μL intrathecal, 1.46 mg dose) | analgesic effect (thermal latency time) [4]
FC(F)OC(Cl)C(F)(F)F (stereo not shown) [isoflurane, 1-chloro-2,2,2-trifluoroethyl difluoromethyl ether] | 14.82 s | 14.2 seconds and 20 seconds (3×) and 16 seconds and 9.8 seconds and 11.8 seconds (2×) and 9.1 seconds and 11 seconds and 15 seconds and 19.5 seconds and 10.9 seconds and 12.6 seconds and 18.1 seconds and 17.3 seconds | 9.181 s | 12.2 seconds and 12 seconds (2×) and 9.1 seconds and 8.9 seconds and 8.8 seconds and 7.8 seconds and 10.2 seconds and 8.1 seconds and 5.4 seconds and 9 seconds (3×) and 6.8 seconds and 9.9 seconds and 8.7 seconds | 7.375 s | 6.1 s and 7.1 s and 4.8 s and 5.2 s and 7.9 s and 6.4 s and 6.9 s and 4.3 s and 7.6 s and 7.3 s and 8.8 s and 7 s and 10.4 s and 9.4 s and 5.4 s and 13.4 s | 5.9375 s | 5.2 seconds (2×) and 6.1 seconds and 5.8 seconds and 6.5 seconds and 4.9 seconds (2×) and 4.3 seconds and 4.7 seconds and 3.8 seconds and 6.8 seconds and 7.2 seconds and 8.2 seconds and 6.9 seconds and 8.1 seconds and 6.4 seconds | 4.456 s | 4.2 seconds (2×) and 3.5 seconds (3×) and 3.3 seconds and 3.8 seconds (3×) and 6.1 seconds and 5.8 seconds and 5.1 seconds and 4.9 seconds and 4.7 seconds and 7 seconds and 4.1 seconds | None of the rats in the study experienced adverse effects | ~34% | resulted in analgesia | analgesic effect
FCOC(C(F)(F)F)C(F)(F)F [sevoflurane] | – | – | – | – | – | – | – | – | – | – | None of the rats in the study experienced adverse effects | – | – | analgesic effect
